Like-named read-outs stand apart in the source and are kept apart here.
Assays:
[1] = biological target: human ERAP2 (Homo sapiens, UniProt Q6P179); assay: ERAP2 R-AMC aminopeptidase assay; details: ERAP2 10 nM, R-AMC 10 µM, pH8.0, 30 min
[2] = Caco-2 permeability assay; format: in vitro ADME, human; details: human; for recovery at 2 h, 10 μM: Caco-2, pH 7.4, SI table; for Papp B→A at 2 h, 10 μM / Papp A→B at 2 h, 10 μM: Caco-2, pH 7.4; for Papp B→A at 2 h, 10 μM: SI table; for Papp A→B at 2 h, 10 μM: apical to basolateral, limit of quantification 1.0 x 10^−6 cm/s, read-out: CACO2 Papp A:B
Procedure: (§1) Whether the inhibition of ERAP1 by 1 would translate to in-cell activity would depend on its permeability, as well as its affinity.
(§2) Papp (apparent permeability) was determined in the Caco-2 human colon carcinoma cell line (ATCC). Cells were maintained (DMEM with 10% fetal bovine serum, penicillin, and streptomycin) in a humidified atmosphere with 5% CO2/95% air for 10 days. Cells were plated out onto a cell culture assembly plate (Millipore, UK), and monolayer confluency was checked using a TEER electrode prior to the assay. Media was washed off and replaced in the appropriate apical and basal wells with HBSS buffer (pH 7.4) containing compound (10 μM, 1% DMSO). The Caco-2 plate was incubated for 2 h at 37 °C, and Lucifer Yellow was used to confirm membrane integrity after the assay. Samples from the apical and basolateral chambers were analyzed using a Waters TQ-S LC-MS/MS system.

[3] = tested on: Caco-2 human colon carcinoma cell line; assay: Caco-2 permeability assay; format: in vitro ADME; details: SI table, remark in Recovery A:B cell
Procedure: as §1, §2

Chain of human ERAP2 (Q6P179 whole entry): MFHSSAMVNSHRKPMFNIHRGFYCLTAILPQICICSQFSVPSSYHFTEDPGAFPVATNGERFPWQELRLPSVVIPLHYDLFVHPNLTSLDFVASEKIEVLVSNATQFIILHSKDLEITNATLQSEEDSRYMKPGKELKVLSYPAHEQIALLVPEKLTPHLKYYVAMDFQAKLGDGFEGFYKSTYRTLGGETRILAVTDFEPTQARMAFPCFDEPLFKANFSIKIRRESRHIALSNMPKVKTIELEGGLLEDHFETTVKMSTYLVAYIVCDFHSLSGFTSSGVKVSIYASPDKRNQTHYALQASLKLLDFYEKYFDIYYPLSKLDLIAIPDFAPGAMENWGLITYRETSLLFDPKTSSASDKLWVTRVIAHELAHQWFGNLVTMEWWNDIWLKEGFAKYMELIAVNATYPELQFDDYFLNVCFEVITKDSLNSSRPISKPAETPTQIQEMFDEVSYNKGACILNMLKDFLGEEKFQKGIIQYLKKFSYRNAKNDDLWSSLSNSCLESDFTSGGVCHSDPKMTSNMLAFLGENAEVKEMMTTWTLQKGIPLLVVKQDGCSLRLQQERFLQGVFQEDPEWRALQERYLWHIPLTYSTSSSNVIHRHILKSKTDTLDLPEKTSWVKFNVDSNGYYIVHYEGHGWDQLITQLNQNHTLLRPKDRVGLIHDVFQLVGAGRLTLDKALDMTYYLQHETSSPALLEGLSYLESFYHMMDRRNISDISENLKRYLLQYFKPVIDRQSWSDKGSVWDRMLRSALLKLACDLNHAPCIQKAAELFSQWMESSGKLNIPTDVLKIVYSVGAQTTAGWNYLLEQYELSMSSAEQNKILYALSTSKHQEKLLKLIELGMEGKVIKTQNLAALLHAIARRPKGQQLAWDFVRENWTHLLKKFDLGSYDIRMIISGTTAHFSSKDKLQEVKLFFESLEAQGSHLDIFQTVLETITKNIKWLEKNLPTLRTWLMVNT

ERAP2 pIC50 ± SEM [1]	IC50 ([1]; read-out: ERAP2 IC50 (geometric mean))	recovery at 2 h, 10 μM ([2]; read-out: Recovery A:B)	recovery at 2 h, 10 μM ([2]; read-out: Recovery B:A)	efflux ratio at 2 h, 10 μM ([2]; Caco-2, pH 7.4, PappB:A/PappA:B, read-out: CACO2 ER (efflux ratio))	Papp B→A at 2 h, 10 μM [2]	Papp A→B at 2 h, 10 μM [2]	stability observation in Caco-2 assay A:B [3]	Structure (SMILES)
< 3.66	> 220 µM	79%	84%	> 12	4.3 ×10⁻⁶ cm/s	< 1 ×10⁻⁶ cm/s	–	CC(C)C[C@H](CP(=O)(O)[C@H](CCc1ccccc1)NC(=O)OCc1ccccc1)C(=O)N[C@@H](Cc1c[nH]c2ccccc12)C(N)=O [compound 3, (2S)-2-((((1S)-2-amino-1-(1H-indol-3-ylmethyl)-2-oxo-ethyl)carbamoyl)-4-methyl-pentyl)-((1R)-1-(benzyloxycarbonylamino)-3-phenyl-propyl)phosphinic acid]
–	–	97%	100%	–	< 1 ×10⁻⁶ cm/s	< 1 ×10⁻⁶ cm/s	–	CC(C)C[C@H](CP(=O)(O)[C@@H](N)CCc1ccccc1)C(=O)N[C@@H](Cc1c[nH]c2ccccc12)C(N)=O [DG013A 1, ((S)-2-(((S)-1-amino-3-(1H-indol-3-yl)-1-oxopropan-2-yl)carbamoyl)-4-methylpentyl)((R)-1-amino-3-phenylpropyl)phosphinic acid, reference compound]
–	–	2%	84%	–	< 1 ×10⁻⁶ cm/s	< 1 ×10⁻⁶ cm/s	Ester hydrolysis observed	COC(=O)[C@H](Cc1c[nH]c2ccccc12)NC(=O)C(CC(C)C)CP(=O)(O)[C@@H](N)CCc1ccccc1 (stereo in doubt) [compound 17, ((R)-2-(((S)-3-(1H-indol-3-yl)-1-methoxy-1-oxopropan-2-yl)carbamoyl)-4-methylpentyl)((R)-1-amino-3-phenylpropyl)phosphinic acid]
–	–	83%	96%	–	< 1 ×10⁻⁶ cm/s	< 1 ×10⁻⁶ cm/s	–	CC(C)CC(CP(=O)(O)[C@@H](N)CCc1ccccc1)C(=O)N[C@@H](Cc1c[nH]c2ccccc12)C(=O)O (stereo in doubt) [compound 18, ((2R)-2-((((R)-1-amino-3-phenylpropyl)(hydroxy)phosphoryl)methyl)-4-methylpentanoyl)-L-tryptophan]
–	–	83%	90%	–	< 1 ×10⁻⁶ cm/s	< 1 ×10⁻⁶ cm/s	–	CC(C)C[C@@H](CP(=O)(O)[C@@H](N)CCc1ccccc1)C(=O)N[C@@H](Cc1c[nH]c2ccccc12)C(N)=O [DG013B 2, reference compound]

— article PMC8188423, “Investigating the phosphinic acid tripeptide mimetic DG013A as a tool compound inhibitor of the M1-aminopeptidase ERAP1” (Bioorganic & Medicinal Chemistry Letters, 2021)
